This test addresses T1, human kinase Mps-1 (Homo sapiens, UniProt P33981).
T1 construct: N-terminally GST-tagged human full length recombinant Mps-1 kinase; GST (N); purchased Invitrogen, Karslruhe, Germany PV4071
T1 sequence (P33981 1-857): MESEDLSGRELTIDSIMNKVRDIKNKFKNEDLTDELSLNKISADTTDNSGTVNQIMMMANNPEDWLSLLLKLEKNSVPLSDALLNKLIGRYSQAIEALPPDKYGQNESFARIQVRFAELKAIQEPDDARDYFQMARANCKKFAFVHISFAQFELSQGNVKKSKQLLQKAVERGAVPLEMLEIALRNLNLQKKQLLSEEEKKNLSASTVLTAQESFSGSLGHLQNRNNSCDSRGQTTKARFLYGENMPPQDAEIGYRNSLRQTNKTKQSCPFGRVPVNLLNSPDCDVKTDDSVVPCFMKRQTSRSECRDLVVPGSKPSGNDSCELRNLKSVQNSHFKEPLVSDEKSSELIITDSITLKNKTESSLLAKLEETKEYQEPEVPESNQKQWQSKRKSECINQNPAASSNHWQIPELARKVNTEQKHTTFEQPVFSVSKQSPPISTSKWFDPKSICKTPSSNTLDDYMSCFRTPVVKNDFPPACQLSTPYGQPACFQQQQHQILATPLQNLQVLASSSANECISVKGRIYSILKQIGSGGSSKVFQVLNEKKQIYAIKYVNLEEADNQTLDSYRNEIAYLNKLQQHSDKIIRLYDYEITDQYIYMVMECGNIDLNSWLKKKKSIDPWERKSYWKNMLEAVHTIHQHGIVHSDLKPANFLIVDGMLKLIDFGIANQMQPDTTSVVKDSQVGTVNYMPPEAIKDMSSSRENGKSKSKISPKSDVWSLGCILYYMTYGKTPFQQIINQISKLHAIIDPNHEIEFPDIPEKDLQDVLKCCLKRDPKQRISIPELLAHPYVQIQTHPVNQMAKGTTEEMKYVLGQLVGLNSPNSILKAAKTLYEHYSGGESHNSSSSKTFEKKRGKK
The test is described as follows: Mps-1 kinase assay (TR-FRET). The class given is biochemical. The following applies: GST-tagged human full length recombinant Mps-1; 10 μM ATP; 1 μM peptide substrate; 60 min at 22° C. Put shortly:
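TR-FRET read-out: after 1 h binding at 22° C, Eu-labelled anti-phospho-Ser/Thr antibody transfers to SA-XLent on the phosphorylated biotinylated peptide. The enzyme is GST-tagged full-length human Mps-1, typically about 1 nM final, in the linear range.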
For orientation: Time-resolved FRET reads energy transfer from a long-lived donor to a nearby acceptor.

Each structure is given as a SMILES string.

The values below come from patent US20140135319A1, “6-SUBSTITUTED IMIDAZOPYRAZINES FOR USE AS MPS-1 AND TKK INHIBITORS IN THE TREATMENT OF HYPERPROLIFERATIVE DISORDERS” (BAYER INTELLECTUAL PROPERTY GMBH, priority 2010, published 2014).

Regarding `O=C(NC1CC1)c1ccc(-c2cnc3c(NCc4ccco4)nc(-c4ccncc4)cn23)cc1` [Example 3-20, N-cyclopropyl-4-{8-[(furan-2-ylmethyl)amino]-6-(pyridin-4-yl)imidazo [1,2-a]pyrazin-3-yl} benzamide], the IC50 (as a rule, the concentration at which inhibition is half-maximal) was 3.5 nM.

With `O=C(NC1CC1)c1ccc(-c2cnc3c(NCC(O)C(F)(F)F)nc(-c4ccncc4)cn23)cc1` (stereo not shown) [Example 3-21, N-cyclopropyl-4-{6-(pyridin-4-yl)-8-[(3,3,3-tri-fluoro-2-hydroxypropyl)amino]imidazo[1,2-a]pyrazin-3-yl}benzamide], the IC50 was found to be 1.6 nM.

With `O=C(NC1CC1)c1ccc(-c2cnc3c(NCCC(F)(F)F)nc(-c4ccncc4)cn23)cc1` [Example 3-22, N-cyclopropyl-4-{6-(pyridin-4-yl)-8-[(3,3,3-trifluoropropyl)amino]imidazo[1,2-a]pyrazin-3-yl}benzamide], the IC50 turned out to be 1.1 nM.

With `CC(O)CNc1nc(-c2ccncc2)cn2c(-c3ccc(C(=O)NC4CC4)cc3)cnc12` (stereo not shown) [Example 3-23, N-cyclopropyl-4-{8-[(2-hydroxypropyl)amino]-6-(pyrdin-4-yl)imidazo [1,2-a]pyrazin-3-yl} benzamide], the half-inhibitory concentration (IC50) amounted to 8 nM.

For `COCCCNc1nc(-c2ccncc2)cn2c(-c3ccc(C(=O)NC4CC4)cc3)cnc12` [Example 3-24, N-cyclopropyl-4-{8-[(3-methoxypropyl)amino]-6-(pyridin-4-yl)imidazo [1,2-a]pyrazin-3-yl} benzamide], the IC50 worked out at 5.5 nM.

As for `C[S+]([O-])CCNc1nc(-c2ccncc2)cn2c(-c3ccc(C(=O)NC4CC4)cc3)cnc12` (stereo not shown) [Example 3-25, N-cyclopropyl-4-[8-{[2-(methylsulfinyl)ethyl]amino}-6-(pyridin-4-yl)imidazo[1,2-a]pyrazin-3-yl]benzamide], the IC50 was found to be 19.6 nM.

`O=C(NC1CC1)c1ccc(-c2cnc3c(NCC(F)F)nc(-c4ccncc4)cn23)cc1` [Example 3-26, N-cyclopropyl-4-{8-[(2,2-difluoroethyl)amino]-6-(pyridin-4-yl)imidazo [1,2-a]pyrazin-3-yl} benzamide]: the IC50 came to 5.4 nM.

Turning to `Cn1ccc(CNc2nc(-c3ccncc3)cn3c(-c4ccc(C(=O)NC5CC5)cc4)cnc23)n1` [Example 3-27, N-cyclopropyl-4-[8-{[(1-methyl-1H-pyrazol-3-yl)methyl]amino}-6-(pyridin-4-yl)imidazo [1,2-a]pyrazin-3-yl] benzamide], the 50% inhibitory concentration (IC50) was 9.8 nM.

`Cn1nccc1CNc1nc(-c2ccncc2)cn2c(-c3ccc(C(=O)NC4CC4)cc3)cnc12` [Example 3-28, N-cyclopropyl-4-[8-{[(1-methyl-1H-pyrazol-5-yl)methyl]amino}-6-(pyridin-4-yl)imidazo [1,2-a]pyrazin-3-yl] benzamide]: the IC50 was determined as 2.8 nM.

With `Cn1cc(CNc2nc(-c3ccncc3)cn3c(-c4ccc(C(=O)NC5CC5)cc4)cnc23)cn1` [Example 3-29, N-cyclopropyl-4-[8-{[(1-methyl-1H-pyrazol-4-yl)methyl]amino}-6-(pyridin-4-yl)imidazo [1,2-a]pyrazin-3-yl] benzamide], the IC50 was 5.6 nM.

As for `CCOC(C)CNc1nc(-c2ccncc2)cn2c(-c3ccc(C(=O)NC4CC4)cc3)cnc12` (stereo not shown) [Example 3-30, N-cyclopropyl-4-{8-[(2-ethoxypropyl)amino]-6-(pyridin-4-yl)imidazo [1,2-a]pyrazin-3-yl} benzamide], the IC50 was 7.1 nM.

Turning to `O=C(NC1CC1)c1ccc(-c2cnc3c(NCc4ccc(Cl)s4)nc(-c4ccncc4)cn23)cc1` [Example 3-31, 4-[8-{[(5-chlorothiophen-2-yl)methyl]amino}-6-(pyridin-4-yl)imidazo [1,2-a]pyrazin-3-yl]-N-cyclopropylbenzamide], the IC50 was determined as 2.3 nM.

In the case of `CS(=O)(=O)CCCNc1nc(-c2ccncc2)cn2c(-c3ccc(C(=O)NC4CC4)cc3)cnc12` [Example 3-32, N-cyclopropyl-4-[8-{[3-(methylsulfonyl)propyl]amino}-6-(pyridin-4-yl)imidazo[1,2-a]pyrazin-3-yl]benzamide], the IC50 is 21.5 nM.

In the case of `O=C(NC1CC1)c1ccc(-c2cnc3c(NCCCF)nc(-c4ccncc4)cn23)cc1` [Example 3-33, N-cyclopropyl-4-{8-[(3-fluoropropyl)amino]-6-(pyridin-4-yl)imidazo [1,2-a]pyrazin-3-yl} benzamide], the half-inhibitory concentration (IC50) was found to be 3.2 nM.

Consider `O=C(NC1CC1)c1ccc(-c2cnc3c(NCCc4nccs4)nc(-c4ccncc4)cn23)cc1` [Example 3-34, N-cyclopropyl-4-[6-(pyridin-4-yl)-8-{[2-(1,3-thiazol-2-yl)ethyl]amino}imidazo[1,2-a]pyrazin-3-yl]benzamide], for which the IC50 is 8.2 nM.

As to `NS(=O)(=O)CCNc1nc(-c2ccncc2)cn2c(-c3ccc(C(=O)NC4CC4)cc3)cnc12` [Example 3-35, N-cyclopropyl-4-{6-(pyridin-4-yl)-8-[(2-sulfamoylethyl)amino]imidazo [1,2-a]pyrazin-3-yl} benzamide], the IC50 was 1.9 nM.

Turning to `O=C(NC1CC1)c1ccc(-c2cnc3c(NCC4CCCCO4)nc(-c4ccncc4)cn23)cc1` (stereo not shown) [Example 3-36, N-cyclopropyl-4-{6-(pyridin-4-yl)-8-[(tetrahydro-2H-pyran-2-ylmethyl)amino]imidazo[1,2-a]pyrazin-3-yl} benzamide], the concentration for half-maximal inhibition (IC50) stood at 3.5 nM.

Turning to `O=C(NC1CC1)c1ccc(-c2cnc3c(NC[C@@H](O)CO)nc(-c4ccncc4)cn23)cc1` [Example 3-37, N-cyclopropyl-4-{8-[(2,3-dihydroxypropyl)amino]-6-(pyridin-4-yl)imidazo [1,2-a]pyrazin-3-yl}benzamide], the IC50 was 19.3 nM.

For the molecule `Cc1cc(-c2cnc3c(NC[C@H](O)C(F)(F)F)nc(-c4ccnn4C)cn23)ccc1C(=O)NC1CC1` [Example 3-38, N-cyclopropyl-2-methyl-4-{6-(1-methyl-1H-pyrazol-5-yl)-8-[(3,3,3-trifluoro-2-hydroxypropyl)amino]imidazo[1,2-a]pyrazin-3-yl}benzamide], the IC50 stood at 7.2 nM.

In the case of `C=CCNc1nc(-c2ccccc2)cn2c(-c3ccc(C(=O)NC4CC4)cc3)cnc12` [Example 3-39, 4-[8-(Allylamino)-6-phenylimidazo[1,2-a]pyrazin-3-yl]-N-cyclopropylbenzamide], the half-maximal inhibitory concentration (IC50) is 3.6 nM.

For `C=C(C)CNc1nc(-c2ccccc2)cn2c(-c3ccc(C(=O)NC4CC4)cc3)cnc12` [Example 3-40, N-Cyclopropyl-4-{8-[(2-methylprop-2-en-1-yl)amino]-6-phenylimidazo[1,2-a]pyrazin-3-yl}benzamide], the IC50 is 3.7 nM.

In the case of `O=C(NC1CC1)c1ccc(-c2cnc3c(NCCOCC4CCCO4)nc(-c4ccccc4)cn23)cc1` (stereo not shown) [Example 3-41, N-cyclopropyl-4-(6-phenyl-8-{[2-(tetrahydrofuran-2-ylmethoxy)ethyl]amino}imidazo[1,2-a]pyrazin-3-yl)benzamide], the IC50 turned out to be 20.4 nM.

For the molecule `O=C(NC1CC1)c1ccc(-c2cnc3c(NCCCOCC4COCO4)nc(-c4ccccc4)cn23)cc1` (stereo not shown) [Example 3-42, N-cyclopropyl-4-(8-{[3-(1,3-dioxolan-4-ylmethoxy)propyl]amino}-6-phenylimidazo[1,2-a]pyrazln-3-yl)benzamide], the IC50 worked out at 5.1 nM.

Take `O=C(NC1CC1)c1ccc(-c2cnc3c(NCCOCCOCCO)nc(-c4ccccc4)cn23)cc1` [Example 3-43, N-cyclopropyl-4-[8-({2-[2-(2-hydroxyethoxy)ethoxy]ethyl}amino)-6-phenylimidazo[1,2-a]pyrazin-3-yl]benzamide]: the half-maximal inhibitory concentration (IC50) stood at 17.8 nM.

As for `C=CCOC(=O)CCCNc1nc(-c2ccccc2)cn2c(-c3ccc(C(=O)NC4CC4)cc3)cnc12` [Example 3-44, Allyl 4-({3-[4-(cyclopropylcarbamoyl)phenyl]-6-phenylimidazo[1,2-a]pyrazin-8-yl}amino)butanoate], the IC50 was found to be 14.2 nM.

On to `NCC#CCCNc1nc(-c2ccccc2)cn2c(-c3ccc(C(=O)NC4CC4)cc3)cnc12` [Example 4-1, 4-{8-[(5-Aminopent-3-yn-1-yl)amino]-6-phenylimidazo[1,2-a]pyrazin-3-yl}-N-cyclopropylbenzamide], for which the IC50 came out at 10.8 nM.

For `NC/C=C/CCNc1nc(-c2ccccc2)cn2c(-c3ccc(C(=O)NC4CC4)cc3)cnc12` [Example 4-2, 4-(8-{[(3E)-5-aminopent-3-en-1-yl]amino}-6-phenylimidazo[1,2-a]pyrazin-3-yl)-N-cyclopropylbenzamide], the IC50 came out at 4.4 nM.

Consider `NC/C=C\CCNc1nc(-c2ccccc2)cn2c(-c3ccc(C(=O)NC4CC4)cc3)cnc12` [Example 4-3, 4-(8-{[(3Z)-5-aminopent-3-en-1-yl]amino}-6-phenylimidazo[1,2-a]pyrazin-3-yl)-N-cyclopropylbenzamide], for which the IC50 is 4.6 nM.
